Results as given in patent US20260028354A1, “TETRAHYDRONAPHTHALENE DERIVATIVES AS ESTROGEN RECEPTOR DEGRADERS” (REGENT OF THE UNIVERSITY OF MICHIGAN, priority 2022, published 2026).
Like-named read-outs stand apart in the source and are kept apart here.

Columns and labels:
ER in MCF-7 cells = ER in MCF-7 cells (Homo sapiens (Human), UniProt P03372); test: In-cell Western (ICW) ER degradation assay in MCF-7 cells; format: cell-based; details: for DC50: MCF-7, ER degradation, read-out: MCF7 DC50
CRBN/DDB1 = CRBN/DDB1 (Homo sapiens (Human), UniProt Q96SW2); format: binding; details: His tagged CRBN+DDB1, Cy5-labeled Thalidomide probe, one hour; read-out: CRBN HTRF IC50
Description: The binding potency was determined using HTRF assay technology (Perkin Elmer). Compounds were serially diluted in DMSO and […] volume was transferred to white 384-well plate.

[1] = MCF7, MCF-7, maximal ER degradation, 16 hrs treatment, read-out: MCF7 Dmax
[2] = MCF7, read-out: MCF7 Dmax, MCF-7, maximal ER degradation, 16 hrs treatment

Chain of CRBN/DDB1 (Q96SW2 whole entry, species assumed): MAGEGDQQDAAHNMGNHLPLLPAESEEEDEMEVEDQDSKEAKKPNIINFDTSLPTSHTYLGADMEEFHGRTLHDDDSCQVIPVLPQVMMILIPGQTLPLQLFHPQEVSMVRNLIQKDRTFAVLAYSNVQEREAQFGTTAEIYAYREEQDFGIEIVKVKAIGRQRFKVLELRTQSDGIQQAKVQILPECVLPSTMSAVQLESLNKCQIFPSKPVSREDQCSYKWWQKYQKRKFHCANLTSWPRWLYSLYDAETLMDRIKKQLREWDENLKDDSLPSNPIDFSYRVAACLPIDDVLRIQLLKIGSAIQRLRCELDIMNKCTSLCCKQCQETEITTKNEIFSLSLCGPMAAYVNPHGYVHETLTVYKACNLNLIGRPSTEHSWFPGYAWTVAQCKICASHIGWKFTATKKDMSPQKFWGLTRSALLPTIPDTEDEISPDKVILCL
Chain of CRBN/DDB1 (Q16531 whole entry partner, species assumed): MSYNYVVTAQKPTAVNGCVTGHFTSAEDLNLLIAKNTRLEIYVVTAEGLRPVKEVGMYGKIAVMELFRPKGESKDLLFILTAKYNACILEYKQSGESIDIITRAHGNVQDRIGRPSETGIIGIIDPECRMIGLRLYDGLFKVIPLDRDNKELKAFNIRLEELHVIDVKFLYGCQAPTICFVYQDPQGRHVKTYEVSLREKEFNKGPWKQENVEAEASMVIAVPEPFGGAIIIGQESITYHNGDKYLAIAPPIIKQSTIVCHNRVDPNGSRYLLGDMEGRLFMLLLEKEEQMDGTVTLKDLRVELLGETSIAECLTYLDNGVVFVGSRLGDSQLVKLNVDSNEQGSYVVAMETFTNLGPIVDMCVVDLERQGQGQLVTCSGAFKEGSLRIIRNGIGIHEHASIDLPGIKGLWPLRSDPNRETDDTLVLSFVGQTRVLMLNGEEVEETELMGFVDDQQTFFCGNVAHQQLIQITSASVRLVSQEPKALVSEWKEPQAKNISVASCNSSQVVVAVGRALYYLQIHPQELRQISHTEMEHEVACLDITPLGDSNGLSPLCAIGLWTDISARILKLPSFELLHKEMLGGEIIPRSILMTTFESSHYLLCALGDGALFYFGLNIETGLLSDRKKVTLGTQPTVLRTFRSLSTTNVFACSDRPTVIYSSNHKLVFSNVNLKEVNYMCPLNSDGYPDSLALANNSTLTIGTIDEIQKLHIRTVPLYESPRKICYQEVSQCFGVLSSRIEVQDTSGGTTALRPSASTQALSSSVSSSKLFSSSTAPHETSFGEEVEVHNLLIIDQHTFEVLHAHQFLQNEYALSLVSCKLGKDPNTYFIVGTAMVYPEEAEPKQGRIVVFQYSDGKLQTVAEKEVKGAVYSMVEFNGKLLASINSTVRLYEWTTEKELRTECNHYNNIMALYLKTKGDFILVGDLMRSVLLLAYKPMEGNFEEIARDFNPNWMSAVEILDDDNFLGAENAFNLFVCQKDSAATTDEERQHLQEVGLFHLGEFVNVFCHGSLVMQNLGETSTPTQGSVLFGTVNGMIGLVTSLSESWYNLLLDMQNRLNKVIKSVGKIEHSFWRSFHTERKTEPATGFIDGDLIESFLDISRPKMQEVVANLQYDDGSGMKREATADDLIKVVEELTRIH
Chain of ER in MCF-7 cells (P03372 whole entry): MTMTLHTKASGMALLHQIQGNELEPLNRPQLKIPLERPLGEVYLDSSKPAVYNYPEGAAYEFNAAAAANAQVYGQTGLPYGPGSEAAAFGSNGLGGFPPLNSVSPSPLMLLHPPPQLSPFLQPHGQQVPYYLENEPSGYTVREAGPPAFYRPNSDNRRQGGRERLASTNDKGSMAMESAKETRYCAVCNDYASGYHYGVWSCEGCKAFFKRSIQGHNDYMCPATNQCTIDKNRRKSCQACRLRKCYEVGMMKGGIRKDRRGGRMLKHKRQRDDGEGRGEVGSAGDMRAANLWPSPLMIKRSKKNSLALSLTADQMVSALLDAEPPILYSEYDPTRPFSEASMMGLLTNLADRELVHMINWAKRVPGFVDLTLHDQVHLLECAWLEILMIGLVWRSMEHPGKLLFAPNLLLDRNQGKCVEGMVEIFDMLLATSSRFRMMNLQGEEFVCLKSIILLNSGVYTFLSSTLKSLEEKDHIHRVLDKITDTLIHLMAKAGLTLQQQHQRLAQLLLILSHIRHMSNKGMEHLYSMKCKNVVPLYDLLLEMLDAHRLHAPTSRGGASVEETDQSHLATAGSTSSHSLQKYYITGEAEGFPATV

Row | Compound | Dmax (ER in MCF-7 cells; [1]) [%] | DC50 (ER in MCF-7 cells; 16 hrs treatment) [nM] | IC50 (CRBN/DDB1) [nM] | Dmax (ER in MCF-7 cells; [2]) [%]
1 | O=C1CC[C@H](N2Cc3c(ccc4c3OC[C@H]3CN(C5CN(CCOc6ccc([C@@H]7c8ccc(O)cc8CC[C@@H]7c7ccccc7)cc6)C5)CCN43)C2=O)C(=O)N1 [Compound A79, (S)-3-((R)-7-(1-(2-(4-((1R,2S)-6-hydroxy-2-phenyl-1,2,3,4-tetrahydronaphthalen-1-yl)-phenoxy)ethyl)azetidin-3-yl)-1-oxo-1,3,5,5a,6,7,8,9-octa-hydro-2H-pyrazino[1′,2′:4,5] [1,4]oxazino[2,3-e]isoindol-2-yl)piperidine-2,6-dione] | 50 to 75 | < 1 | < 50 | –
2 | COc1cc(N2CCC(CN3CCC(c4ccc(N[C@H]5CCC(=O)NC5=O)c(F)c4)CC3)CC2)c(F)cc1[C@@H]1c2ccc(O)cc2CC[C@@H]1c1ccccc1 [Compound A118, (S)-3-((2-fluoro-4-(1-((1-(2-fluoro-4-((1S,2S)-6-hydroxy-2-phenyl-1,2,3,4-tetrahydronaph-thalen-1-yl)-5-methoxyphenyl)-piperidin-4-yl)methyl)piper-idin-4-yl)phenyl)amino)piper-idine-2,6-dione] | 25 to 50 | < 1 | 500 to 5000 | –
3 | O=C1CC[C@H](N2Cc3c(ccc4c3OC[C@H]3CN(CC5CCC6(CC5)CN(c5ncc([C@@H]7c8ccc(O)cc8CC[C@@H]7c7ccccc7)cn5)C6)CCN43)C2=O)C(=O)N1 (single isomer, unassigned) [Compound A156] | > 75 | < 1 | 50 to 500 | –
4 | O=C1CC[C@H](N2Cc3cc4c(cc3C2=O)OC[C@@H]2CN(CC3CC5(CCN(c6ccc([C@@H]7c8ccc(O)cc8CC[C@@H]7c7ccccc7)cn6)CC5)C3)CCN42)C(=O)N1 (single isomer, unassigned) [Compound A121] | > 75 | 1 to 10 | 500 to 5000 | –
5 | COc1cc(N2CC3(CCC(CN4CCN5c6ccc7c(c6OC[C@H]5C4)CN([C@H]4CCC(=O)NC4=O)C7=O)CC3)C2)c(F)cc1[C@@H]1c2ccc(O)cc2CC[C@@H]1c1ccccc1 (single isomer, unassigned) [Compound A163] | > 75 | 1 to 10 | 50 to 500 | –
6 | O=C1CC[C@H](N2Cc3cc4c(cc3C2=O)OC[C@@H]2CN(CC3CCC5(CC3)CN(c3ncc([C@@H]6c7ccc(O)cc7CC[C@@H]6c6ccccc6)cn3)C5)CCN42)C(=O)N1 (single isomer, unassigned) [Compound A158] | 50 to 75 | < 1 | 500 to 5000 | –
7 | O=C1CC[C@H](N2Cc3c(ccc4c3OCC43CCN(CC4CCN(c5ccc([C@@H]6c7ccc(O)cc7CC[C@@H]6c6ccccc6)cc5)CC4)CC3)C2=O)C(=O)N1 [Compound A70, (S)-3-(1′-((1-(4-((1R,2S)-6-hydroxy-2-phenyl-1,2,3,4-tetrahydronaphthalen-1-yl)-phenyl)piperidin-4-yl)methyl)-6-oxo-6,8-dihydro-2H,7H-spiro[furo[2,3-e]isoindole-3,4′-piperidin]-7-yl)piperidine-2,6-dione] | – | < 1 | < 50 | 50 to 75
8 | O=C1CCC(NC(=O)c2ccc(C3CCN(CC4CCN(c5ccc([C@@H]6c7ccc(O)cc7CC[C@@H]6c6ccccc6)cc5)CC4)CC3)cn2)C(=O)N1 (stereo partly drawn) [Compound A3, N-(2,6-dioxopiperidin-3-yl)-5-(1-((1-(4-((1R,2S)-6-hydroxy-2-phenyl-1,2,3,4-tetrahydro-naphthalen-1-yl)phenyl)piper-idin-4-yl)methyl)piperidin-4-yl)picolinamide] | 25 to 50 | < 1 | > 5000 | –
9 | O=C1CC[C@H](N2Cc3c(ccc4c3OCC43CCN(CC4CC5COCC(C4)N5c4ccc([C@@H]5c6ccc(O)cc6CC[C@@H]5c5ccccc5)cc4)CC3)C2=O)C(=O)N1 (stereo partly drawn) [Compound A81, (3S)-3-(1′-((9-(4-((1R,2S)-6-hydroxy-2-phenyl-1,2,3,4-tetra-hydronaphthalen-1-yl)phenyl)-3-oxa-9-azabicyclo[3.3.1]nonan-7-yl)methyl)-6-oxo-6,8-dihydro-2H,7H-spiro[furo[2,3-e]isoindole-3,4′-piperidin]-7-yl)piperidine-2,6-dione] | – | < 1 | < 50 | 25 to 50
10 | O=C1CC[C@H](N2Cc3c(ccc4c3OC[C@H]3CN(CC5CCC6(CC5)CN(c5ccc([C@@H]7c8ccc(O)cc8CC[C@@H]7c7ccccc7)cc5F)C6)CCN43)C2=O)C(=O)N1 (single isomer, unassigned) [Compound A152] | 50 to 75 | 1 to 10 | 500 to 5000 | –
11 | O=C1CC[C@H](N2Cc3c(ccc4c3OCC43CCN(C[C@@H]4COC5(C4)CN(c4ccc([C@@H]6c7ccc(O)cc7CC[C@@H]6c6ccccc6)cc4)C5)CC3)C2=O)C(=O)N1 [Compound A75, (S)-3-(1′-(((R)-2-(4-((1R,2S)-6-hydroxy-2-phenyl-1,2,3,4-tetrahydronaphthalen-1-yl)phenyl)-5-oxa-2-azaspiro[3,4]octan-7-yl)methyl)-6-oxo-6,8-dihydro-2H,7H-spiro[furo[2,3-e]isoindole-3,4′-piperidin]-7-yl)piperidine-2,6-dione] | – | < 1 | < 50 | 50 to 75
12 | O=C1CC[C@H](N2Cc3c(ccc4c3OCC43CCN(C4CN(CCOc5ccc([C@@H]6c7ccc(O)cc7CC[C@@H]6c6ccccc6)cc5)C4)CC3)C2=O)C(=O)N1 [Compound A80, (S)-3-(1′-(1-(2-(4-((1R,2S)-6-hydroxy-2-phenyl-1,2,3,4-tetrahydronaphthalen-1-yl)-phenoxy)ethyl)azetidin-3-yl)-6-oxo-6,8-dihydro-2H,7H-spiro[furo[2,3-c]isoindolc-3,4′-piperidin]-7-yl)piperidine-2,6-dione] | – | < 1 | < 50 | 50 to 75
13 | O=C1CC[C@H](N2Cc3cc4c(cc3C2=O)OC[C@@H]2CN(CC3CCC5(CC3)CN(c3ccc([C@H]6c7ccc(O)cc7CC[C@H]6c6ccccc6)cc3F)C5)CCN42)C(=O)N1 (single isomer, unassigned) [Compound A151] | 25 to 50 | 10 to 100 | 500 to 5000 | –
14 | O=C1CC[C@H](N2Cc3c(ccc4c3OCC43CCN(CC4CC5(CCN(c6ncc([C@H]7c8ccc(O)cc8CC[C@H]7c7ccccc7)cn6)CC5)C4)CC3)C2=O)C(=O)N1 [Compound A141, (S)-3-(1′-((7-(5-((1R,2R)-6-hydroxy-2-phenyl-1,2,3,4-tetrahydronaphthalen-1-yl)pyrimidin-2-yl)-7-azaspiro[3.5]nonan-2-yl)methyl)-6-oxo-6,8-dihydro-2H,7H-spiro[furo[2,3-e]isoindole-3,4′-piperidin]-7-yl)piperidine-2,6-dione] | – | 1 to 10 | < 50 | 50 to 75
15 | COc1cc(N2CC3(CCC(CN4CCN5c6cc7c(cc6OC[C@@H]5C4)C(=O)N([C@H]4CCC(=O)NC4=O)C7)CC3)C2)c(F)cc1[C@@H]1c2ccc(O)cc2CC[C@@H]1c1ccccc1 (single isomer, unassigned) [Compound A164] | > 75 | 1 to 10 | 500 to 5000 | –
16 | O=C1CC[C@H](N2Cc3c(ccc4c3OCC43CCN(C[C@H]4COC5(C4)CN(c4ccc([C@@H]6c7ccc(O)cc7CC[C@@H]6c6ccccc6)cc4)C5)CC3)C2=O)C(=O)N1 [Compound A74, (S)-3-(1′-(((S)-2-(4-((1R,2S)-6-hydroxy-2-phenyl-1,2,3,4-tetrahydronaphthalen-1-yl)phenyl)-5-oxa-2-azaspiro[3,4]octan-7-yl)methyl)-6-oxo-6,8-dihydro-2H,7H-spiro[furo[2,3-e]isoindole-3,4′-piperidin]-7-yl)piperidine-2,6-dione] | – | < 1 | < 50 | 50 to 75
17 | O=C1CC[C@H](N2Cc3cc4c(cc3C2=O)OC[C@@H]2CN(CC3CCC5(CC3)CN(c3ncc([C@H]6c7ccc(O)cc7CC[C@H]6c6ccccc6)cn3)C5)CCN42)C(=O)N1 (single isomer, unassigned) [Compound A157] | < 25 | 10 to 100 | 500 to 5000 | –
18 | COc1cc([C@H]2c3ccc(O)cc3CC[C@H]2c2ccccc2)c(F)cc1N1CCC2(CC1)CC(CN1CCN3c4ccc5c(c4OC[C@H]3C1)CN([C@H]1CCC(=O)NC1=O)C5=O)C2 [Compound A117, (S)-3-((R)-7-((7-(5-fluoro-4-((1R,2R)-6-hydroxy-2-phenyl-1,2,3,4-tetrahydronaphthalen-1-yl)-2-methoxyphenyl)-7-aza-spiro[3.5]nonan-2-yl)methyl)-1-oxo-1,3,5,5a,6,7,8,9-octa-hydro-2H-pyrazino[1′,2′:4,5] [1,4]oxazino[2,3-e]isoindol-2-yl)piperidine-2,6-dione] | 25 to 50 | 10 to 100 | < 50 | –
19 | O=C1CC[C@H](N2Cc3c(ccc4c3OCC43CCN(CC4CCC5(CC4)CN(c4ncc([C@H]6c7ccc(O)cc7CC[C@H]6c6ccccc6)cn4)C5)CC3)C2=O)C(=O)N1 [Compound A153, (S)-3-(1′-((2-(5-((1R,2R)-6-hydroxy-2-phenyl-1,2,3,4-tetrahydronaphthalen-1-yl)pyrimidin-2-yl)-2-azaspiro[3.5]nonan-7-yl)methyl)-6-oxo-6,8-dihydro-2H,7H-spiro[furo[2,3-e]isoindole-3,4′-piperidin]-7-yl)piperidine-2,6-dione] | – | > 100 | < 50 | < 25
20 | O=C1CC[C@H](N2Cc3cc4c(cc3C2=O)OC[C@@H]2CN(CC3CC5(CCN(c6ccc([C@@H]7c8ccc(O)cc8CC[C@@H]7c7ccccc7)cc6F)CC5)C3)CCN42)C(=O)N1 (single isomer, unassigned) [Compound A150] | 50 to 75 | 10 to 100 | 500 to 5000 | –
